Assay results: patent US11318206B2, “Compounds and methods for trans-membrane delivery of molecules” (Aposense Ltd., priority 2014, dated 2022)
Entries after “also recorded” stand apart in the source; their conditions may differ.

Assays:
[1] = Stability under oligonucleotide de-protection conditions, HPLC/MS; type: physicochemical; details: ammonium hydroxide at 65° C., samples at 15 minutes, 1 and 2 hours
Text: Synthesis of the Conjugates of the Invention customarily involves protecting the nucleobases of the synthesized oligonucleotides by chemical groups. For example, adenine is often protected by a benzoyl protecting group, guanine by isobutyryl, and cytosine by acetyl. These protecting groups should be removed at the end of synthesis, in order to obtain a functional oligonucleotide. This removal is customarily performed in strong basic conditions. For example, the standard protocol of IDT (Iowa, USA) for removal of the protecting groups during synthesis of oligonucleotides comprises incubation with ammonium hydroxide at 65° C. degrees, for 2 hours. In order to evaluate whether the Compound of the Invention can sustain de-protection in these harsh conditions, a model system was constructed, based on the following Model Compound A, having the following structure:
Two mg of this compound were incubated in the above standard conditions used for deprotection. Samples were drawn after 15 minutes, 1 and 2 hours incubation, and evaluated by HPLC/MS, exploring and analyzing the formation of new peaks. […] Therefore, this analogue of the compound of the Invention manifested stability in these relatively harsh basic conditions.

[2] = test system: C26 cells; assay: Delivery of 58-mer dsDNA Conjugate into C26 cells, ELISA reader (Example 8); type: cell-based, murine; details: Cy3 58-mer dsDNA, two MNMs
Description: (§1) 3T3 cells and C26 cells were grown and prepared as described in Example 5 above. Cells were incubated for 1, 2, and 24 hours with a Conjugate comprising a 58-mer double-stranded (ds)DNA, linked to Cy3 fluorophore, and lined to two Apo-Si—C4 moieties. Two concentrations of the Conjugate were tested: 40 nM and 100 nM. Analysis comprised fluorescent microscopy and signal quantification by ELISA reader, as described in Example 5 above. An identical 58-mer dsDNA, not linked to E moieties, served as Control.

[3] = test system: 3T3 cells; assay: Delivery of 58-mer dsDNA Conjugate into 3T3 cells, ELISA reader (Example 8); type: cell-based, murine; details: Cy3 58-mer dsDNA, two MNMs
Description: as §1

[4] = test system: EGFP gene; assay: EGFP gene silencing in primary culture of hepatocytes of transgenic mice; type: cell-based, mouse; details: EGFP dsRNA, two MNMs, complex with Histone H2A (2:1 Histone/RNA); 40 nM; 72 hours
Description: Double-stranded RNA sequence, as specified in Example 7 was attached to two MNMs according to Formula (VIIa), wherein a=2, and k=1, designated Apo-Si—C4. The conjugate (40 nM) was then incubated with the histone 2A protein (Histone H2A, Molecular Weight 14 kDa; New England Biolabs, Inc.) for 30 minutes (at a 2:1 Histone/RNA ratio) for generation of RNA+MNM+protein complex. The complex was then incubated with cells of primary culture of hepatocytes of transgenic mice, expressing the EGFP gene. After 72 hours, fluorescence of the EGFP signal was quantified utilizing an ELISA reader, as described in Example 7. […] As evident from the results, this complex was capable of effectively crossing the cell membranes, and moreover, exerting a beneficial biological performance in gene silencing. By comparison to the performance of the Control complex, which was devoid of MNMs, the observed results can be attributed solely to the MNMs of the invention.

[5] = test system: 3T3-EGFP cells; assay: Uptake of Conjugate into 3T3-EGFP cells with dipole potential modulators phloretin or 6-KC; type: cell-based, mouse
Text: Phloretin is an inhibitor of the membrane dipole potential and the related IMEF, while 6-keto-cholestanol (6-KC) is a potent enhancer of the IMEF). Therefore, a potential relationship between the effects of the dipole potential modulators phloretin or 6-KC, and the uptake level of the above Conjugate of the Invention (comprising the Apo-Si—C4 MNM, linked to dsDNA, of the sequence: Sense:/5′-MNM/TT/iCy3/[…] (SEQ ID. No. 9); Anti-sense:/5′-MNM/[…] (SEQ ID. No. 10); wherein Cy3 is a red fluorophore); was examined.
One day before the experiment, 3T3-EGFP cells in the exponential growth phase were plated in 6-well plates, at a density of 5×10^5 cells/well, with DMEM complete medium, without antibiotics. Cells were incubated with phloretin 750 μM at 37° C., or 6-KC 100 μM at 37° C., for one hour. The 6-KC was then washed away, while the phloretin was kept in the medium. The Conjugate as described above was diluted in 500 μl/well of Opti-Mem, and added to the above cells, at a final concentration of 40 nM for two hours. Delivery of the Conjugate was evaluated at 2 hours post transfection. At that time point, cells were trypsinized, supplemented with Hank's Buffered Salt Solution (HBSS buffer; Biological Industries, Israel) and centrifuged for 5 min at 1200 rpm. Cells were then re-suspended with Hank's Buffered Salt Solution, and subjected to analysis using FACSAria III Cell Sorter (BD Biosciences, San Jose, Calif., USA), utilizing the Cell Diva software. For each sample, a total of 10^4 events were collected.

[6] = test system: 3T3-EGFP cells; assay: Structure/function analysis of polarity: uptake into 3T3-EGFP cells, FACS; type: cell-based, mouse; details: Cy3 58-mer DNA conjugate, 40 nM
Description: For this purpose, two analogous Conjugates were constructed and evaluated: • (i). A Conjugate of dsDNA, linked to E and E′, each has the structure as set forth in Formula (VIIa); designated Apo-Si—C4: […]
Both these MNM moieties were linked to a 58-mer DNA oligonucleotide, labeled with the Cy3-fluorophore, and were subjected to FACS analysis.
One day before the experiment, 3T3-EGFP cells in the exponential growth phase were plated in 6-well plates, at a density of 0.2-0.5×10^5 cells/well, with DMEM complete medium, without antibiotics. Each of the Cy3-labeled oligonucleotides (with or without the MNMs) was diluted in 500 μl/well of Opti-Mem, and added to the cells, at a final concentration of 40 nM. Delivery of the Conjugates was evaluated at 2-24 hours of incubation. Following the incubation period, cells were trypsinized, supplemented with Hank's Buffered Salt Solution (HBSS buffer; Biological Industries, Israel) and centrifuged for 5 min at 1100 rpm. […] Detection and quantification of the Cy3-positive cell population were performed using measurements of the fluorescence intensity in the cells incubated with the Apo-Si-4C Conjugate, relative to that of the cells incubated with the Control A Conjugate.

Row | SMILES | Degradation under de-protection conditions [1] | Ratio of signal intensity of the Conjugate versus control dsDNA devoid of MNMs ([2]; 40 nM) | Ratio of signal intensity of the Conjugate versus control dsDNA devoid of MNMs ([2]; 100 nM) | Ratio of signal intensity of the Conjugate versus control dsDNA devoid of MNMs ([3]; 40 nM) | Ratio of signal intensity of the Conjugate versus control dsDNA devoid of MNMs ([3]; 100 nM) | Reduction of the EGFP signal vs control complex without MNMs [4] | Uptake by cells after 6-keto-cholestanol (Cy3 fluorescence microscopy) ([5]; 40 nM, 2 hours, pre-incubation with 6-KC 100 μM for one hour) | Cells labeled (FACS) ([5]; Cy3 dsDNA, MNMs, 40 nM, 2 hours, no modulator) | Cells manifesting binding of the Conjugate (FACS) ([5]; Cy3 dsDNA, MNMs, 40 nM, 2 hours, phloretin 750 μM) | Uptake by cells after phloretin (flow cytometry) ([5]; pre-incubation with phloretin) | Cy3 fluorescent signal in cells (FACS) ([6]; 24 hours of incubation) | Cy3 fluorescent signal in cells (FACS) ([6]; two hours of incubation)
1 | CCCCCCN(C(=O)Oc1ccccc1)[C@H]1CCSSC1 [Compound A] | no signs of degradation |  |  |  |  |  |  |  |  |  |  | 
2 | [2H]CCCCOc1ccc2c(c1)CCC1C2CCC2(C)C(OCCCOC(C(F)(F)F)(C(F)(F)F)C(F)(F)F)CCC12 (stereo not drawn) [Apo-Si—C4] |  | 80 fold | 72 fold | 104 fold | 101 fold | 76% | markedly higher uptake; also recorded: markedly increased uptake | 68% | 1.5% | marked reduction in the uptake | further augmented | strong Cy-3 fluorescent signal
